The source of these data is US20250003940A1, “BIOSENSOR, BIOSENSOR COMPONENTS, AND USE THEREOF” (VICTORIA LINK LIMITED, priority 2021, published 2025).

Where two headings read alike, the source gives them in different places.

A word on the Hill coefficient: it is a measure of the steepness of the concentration-response curve. As a reminder, the kcat is the maximal rate divided by the concentration of active sites.

Data set [1] is described as follows: GS activity assay coupled with PK/LDH (NADH oxidation, A340). The format is biochemical. Conditions: 37° C., decrease of absorbance at 340 nm. On the procedure:
FIG. 3: GS activity assay. The assay was adapted from Shapiro et. al. The reaction mixture included 30 mM imidazole, 100 mM Na-glutamate, 8.5 mM adenosine 5′-triphosphate (ATP), 1 mM phosphoenolpyruvate (PEP), 60 mM magnesium chloride (MgCl2), 20 mM potassium chloride (KCl), 45 mM ammonium chloride (NH4Cl), 0.25 mM (3-nicotinamide adenine dinucleotide (NADH), 28 units pyruvate kinase/40 units L-lactic dehydrogenase (PK/LDH). The reactions were performed at 37° C. and rates were measured by the decrease of absorbance at 340 nm.
For preliminary experiments, glutamine synthetase from Escherichia coli (E. coli) was successfully expressed, purified and tested for activity. This assay took advantage of the biosynthetic reaction of GS (which produces ADP) coupled with lactate dehydrogenase and pyruvate kinase to oxidise NADH (Shapiro & Stadtman, 1970).
The reaction mixture included 30 mM imidazole, 100 mM Na-glutamate, 8.5 mM adenosine 5′-triphosphate (ATP), 1 mM phosphoenolpyruvate (PEP), 60 mM magnesium chloride (MgCl2), 20 mM potassium chloride (KCl), 45 mM ammonium chloride (NH4Cl), 0.25 mM 0-nicotinamide adenine dinucleotide (NADH), 28 units pyruvate kinase/40 units L-lactic dehydrogenase (PK/LDH). The reactions were performed at 37° C. and rates were measured by the decrease of absorbance at 340 nm.
The soluble GS enzymes were tested. […]

The nature of data set [2]: Activity assay of purified arginine deiminase. Format: biochemical. On the procedure: We attempted to express and purify the three ADI enzymes in E. coli. After numerous attempts, we were unable to express the M. hominis or P. putida enzymes in a soluble form. Each protein was expressed solely in inclusion bodies, under all conditions tested (FIG. 14A). Purification from inclusion bodies and refolding were also attempted, without success. In contrast, we were able to express and purify the P. aeruginosa ADI enzyme (average yield=40 mg per litre of bacterial culture).

Data set [3] concerns the target T1, Helicobacter pylori glutamine synthetase (HpGS), SEQ ID NO: 2 (Helicobacter pylori, UniProt P94845).
T1 construct: BpsA-coupled assay
T1 sequence (P94845 1-481): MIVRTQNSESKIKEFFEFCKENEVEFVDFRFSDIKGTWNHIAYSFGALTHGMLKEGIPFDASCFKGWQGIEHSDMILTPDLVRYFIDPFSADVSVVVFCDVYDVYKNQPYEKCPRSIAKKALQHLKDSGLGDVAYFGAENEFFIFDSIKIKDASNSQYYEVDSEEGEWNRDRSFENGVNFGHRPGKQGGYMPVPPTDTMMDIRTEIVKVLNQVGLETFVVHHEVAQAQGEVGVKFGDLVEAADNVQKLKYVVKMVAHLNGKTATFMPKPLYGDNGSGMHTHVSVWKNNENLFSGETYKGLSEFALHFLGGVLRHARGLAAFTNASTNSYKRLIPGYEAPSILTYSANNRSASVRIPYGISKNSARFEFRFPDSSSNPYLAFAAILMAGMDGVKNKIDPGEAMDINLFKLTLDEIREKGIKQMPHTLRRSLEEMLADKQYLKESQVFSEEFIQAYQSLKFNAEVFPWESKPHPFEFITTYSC
Briefly: GS-BpsA coupled assay kinetics of HpGS for glutamate and ammonium (A590, indigoidine). Format: biochemical. Conditions: 37° C., coupled with BpsA. On the procedure: (§1) FIG. 6A: Sigmoidal kinetics data obtained when the GS from Helicobacter pylori (HpGS) is assayed in the presence of various concentrations of its substrate, glutamate. The concentration of GS and BpsA is 3 μM and 6 μM respectively. An optimised condition for the GS-BpsA assay was used. A range of glutamate concentrations (0-900 μM) was used in the assay. Rates were measured through the increase in absorbance at 590 nm at 37° C. Data are the mean values of three replicates and error bars indicate the standard error of the mean.
(§2) FIG. 6B: Sigmoidal kinetics data obtained when HpGS is assayed in the presence of various concentrations of its substrate, ammonium. The concentration of GS and BpsA is 3 μM and 6 μM respectively. An optimised condition for the GS-BpsA assay was used. A range of 0-900 μM NH4Cl was used in the assay. Rates were measured through the increase in absorbance at 590 nm at 37° C. Data are the mean values of three replicates and error bars indicate the standard error of the mean.
(§3) FIG. 21A: Amino acid sequence for Helicobacter pylori glutamine synthetase enzyme. SEQ ID NO: 2. The His-tag sequence used for the protein fusion is also shown.
(§4) Optimised ATP/pH and Mg^2+ conditions were utilised with varying concentrations of KCl (FIG. 5). A concentration of 10 mM KCl was chosen to be optimal based on this experiment. The final optimised reaction mixture for the GS-BpsA assay was determined to be 100 mM Tris Base pH 11.4, 15 mM ATP, 20 mM MgCl2, and 10 mM KCl.
(§5) Using optimised assay conditions for the GS-BpsA coupled assay, kinetics data for HpGS were collected for its substrates glutamate and ammonium. For these experiments, the concentrations of GS and BpsA were 3 μM and 6 μM respectively. Optimised conditions for the GS-BpsA assay were used. A range of 0-1000 μM glutamate concentration and 1000 μM NH4Cl was used in the assay. Rates were measured through the increase in absorbance for 5 minutes at 590 nm and 37° C.
(§6) GS enzymes have been previously found to display non-Michaelis-Menten, sigmoidal kinetics (Murray et al., 2013). As expected, the data were fit better by the Hill equation for cooperative enzymes than by the Michaelis-Menten equation (FIGS. 6A-6B). The Hill coefficient indicates the estimate of the number of active sites that are acting cooperatively, which has a value of approximately 2 for both substrates.

Substrate in data set [4]: N[C@@H](CCC(=O)O)C(=O)O
Described as above. Format: biochemical, Helicobacter pylori. The note with it: coupled with BpsA, pH 11.4; for K0.5: Hill equation. As to the method: as §1, §2, §3, §4, §5, §6

Substrate in data set [5]: N=C(N)NCCC[C@H](N)C(=O)O
Briefly: Michaelis-Menten kinetics of RcArgZ with arginine (glutamate dehydrogenase coupled assay, A340). Format: biochemical, Rhodospirillum centenum. Conditions: other: 37° C., 0-3000 μM arginine, decrease in absorbance at 340 nm. On the procedure:
FIG. 17: Michaelis-Menten kinetics of RcArgZ with arginine. A range of 0-3000 μM arginine concentration was used in the assay. Rates were measured through the decrease in absorbance at 340 nm at 37° C. Data are the mean values of three replicates and error bars indicate the standard error of the mean.
FIG. 22A: Amino acid sequence for Rhodospirillum centenum arginine dihydrolase enzyme. SEQ ID NO: 3. This sequence is derived from the sequence listed as accession number B6IRA8 in the UniProt database, but with the deletion of amino acid residues 2 to 18 from the UniProt sequence. These residues were deleted because they were predicted to encode a disordered region in the polypeptide. The His-tag sequence used for the protein fusion is also shown.
For this reason, we ordered the gene for this isolated domain from a commercial gene synthesis company (Twist Bioscience). […]
RcArgZ activity was quantified in vitro by coupling it with glutamate dehydrogenase (GDH) in a spectrophotometric assay. […]
Therefore, a decrease in absorbance at 340 nm is directly relative to glutamate production, and because GDH is in excess in the reaction, it is directly relative to RcArgZ activity to produce ammonium from arginine.
Activity data for RcArgZ were collected across a range of arginine concentrations. […] Rates were measured through the decrease in absorbance at 340 nm at 37° C.

[6] abbreviates: other: Biological Replicate 1, 37° C.
[7] abbreviates: other: Biological Replicate 2, 37° C.

As to “EcGS: glutamine synthetase from Escherichia coli, SEQ ID NO: 14”, the “GS activity (ATP hydrolysis) in PK/LDH assay” value in data set [1] is recorded as “only slightly active”.
As for “P. aeruginosa ADI: Pseudomonas aeruginosa arginine deiminase enzyme expressed and purified from E. coli”, the “activity of purified arginine deiminase” value in data set [2] is given as “did not have any activity”.
Consider `N` [Ammonium, ammonium], for which the “kcat (estimated from Vmax)” value in data set [3] was 0.8 ± 0.03 s⁻¹. In data set [3] (Hill equation), this molecule displayed a Hill coefficient of 2.0. For the same molecule, the Km in data set [3] (read-out: Khalf (concentration of the substrate at the half-maximal velocity)) was approximately 100 µM; in data set [3] (Biological Replicate 1, Hill equation, read-out: Khalf (ammonium)), 96 µM; in data set [3] (Biological Replicate 2, Hill equation, read-out: Khalf (ammonium)), 97 µM. The “kcat (ammonium varied)” value in data set [3] (Biological Replicate 1) and in data set [3] (Biological Replicate 2) was 0.78 s⁻¹ throughout.

B1: Helicobacter pylori glutamine synthetase (HpGS), SEQ ID NO: 2 (Helicobacter pylori 26695) (protein)
chain: MIVRTQNSESKIKEFFEFCKENEVEFVDFRFSDIKGTWNHIAYSFGALTHGMLKEGIPFDASCFKGWQGIEHSDMILTPDLVRYFIDPFSADVSVVVFCDVYDVYKNQPYEKCPRSIAKKALQHLKDSGLGDVAYFGAENEFFIFDSIKIKDASNSQYYEVDSEEGEWNRDRSFENGVNFGHRPGKQGGYMPVPPTDTMMDIRTEIVKVLNQVGLETFVVHHEVAQAQGEVGVKFGDLVEAADNVQKLKYVVKMVAHLNGKTATFMPKPLYGDNGSGMHTHVSVWKNNENLFSGETYKGLSEFALHFLGGVLRHARGLAAFTNASTNSYKRLIPGYEAPSILTYSANNRSASVRIPYGISKNSARFEFRFPDSSSNPYLAFAAILMAGMDGVKNKIDPGEAMDINLFKLTLDEIREKGIKQMPHTLRRSLEEMLADKQYLKESQVFSEEFIQAYQSLKFNAEVFPWESKPHPFEFITTYSC
notes: BpsA-coupled assay
With B1, the K0.5 in data set [4] (setting [6]) and in data set [4] (setting [7]) was 350 µM in each case. The values for the kcat in data set [4] (setting [6]) and in data set [4] (setting [7]) were 0.28 s⁻¹ and 0.45 s⁻¹, respectively.

B2: Rhodospirillum centenum arginine dihydrolase (RcArgZ), truncated: deletion of residues 2 to 18 of UniProt B6IRA8, SEQ ID NO: 3 (Rhodospirillum centenum SW) (protein)
chain: APPRIIMCAPDHFEVSYTINPWMRPDEWEARRSELSGAAAAGWSALRRRLQQLGAAVELVAPRSGLPDLVFTANAAVVLDGKALVARFRHPERRPEEPHFRRFFDGLAARGLLDEVHDMPPGVCLEGAGDCVHDAGRGVFFLGHGFRSDREAAAVVADLFGEEVEPLELVDPRFYHMDTALCPLSGGEVLYVPGAFSAEGRGRLRERIGADRLIEVPEADAVRLAANAVNLGRDVVLAEASDDLKAALAERGYSVHEVPIRSFGLSGGSAFCLTLRLDRRSNRRSGRPVGGTGPGAAADAPGQPALLD
notes: synthetic gene (Twist Bioscience); GDH-coupled assay
For the molecule B2, in data set [5], the Km was found to be 360 ± 30 µM and the catalytic constant (kcat) was 10.4 s⁻¹.
